Where a name gives a salt, the structure may show the parent alone.
Legend:
[1] = LD50 /24 hours, intravenous route in mice (method of Miller and Tainter); conditions: mouse, in vivo, read-out: LD50 /24 hours/kg of body weight
Experimental: 1, 53 mg for derivative no. 2, 89 mg for derivative no. 3, 57 mg for derivative no. 4, 41 mg for derivative no. 5, 62 mg for derivative no. 6, 66 mg for derivative no. 7, 74 mg for derivative no. 8 and 100 mg for derivative no. 9.

dyslipaemia = test: Hypocholesterolaemic activity: rabbits kept on a hypercholesterolaemic diet, biological tests of dyslipaemia; type: in vivo; set-up: total cholesterol (T) / esterified cholesterol (E) / free cholesterol (L) / Burstein test with dextrane (B) / serum lipids (LS): unit not given here; conditions: 10 mg/kg daily oral
Experimental: (§1) (b) This study was carried out on rabbits kept on a hypercholesterolaemic diet. The rabbits are divided into batches of 40 animals; the control batch (A) receives no treatment, whereas the treated batches are given the medicines according to the invention. Thus, derivative no. 1 is administered to the animals in batch B, derivative no. 5 to those in batch C and derivative no. 7 to those in batch D, by oral route, daily, in dosage of 10 mg/kg. On the first day of the experiments and then every 15 days, for a period of 75 days, biological tests are carried out on all the animals, whereby the various elements which indicate dyslipaemia are determined: total cholesterol (T), esterified cholesterol (E), free cholesterol (L), esterification ratio (E/T), Kunkel phenol test (K1), Kunkel phenol test (K2), Burstein test with dextrane (B) and serum lipids (LS).
(§2) The results, representing the average values determined with each batch, are assembled in the following Tables: […]

livers and aortas = test: Rabbits kept on a hypercholesterolaemic diet: macroscopic examination of livers and aortas; type: in vivo; conditions: 10 mg/kg daily oral, end of experiment; for aortic atheromatous lesions: marked in intensity from 0 to 4; for fatty infiltrations of the liver: marked in size from 0 to 3
Experimental: as §1
At the end of the experiment, all the animals are killed and autopsies are performed on them; macroscopic examinations of their livers and aortas are then carried out, and the fatty infiltrations of the liver are marked, in size, from 0 to 3 and the aortic atheromatous lesions are marked, in intensity, from 0 to 4.
as §2

[2] = tested on: stretching movements induced by acetic acid; test: Analgesic activity: acetic acid stretching movements (method of Koster, Anderson and De Beer); type: in vivo; conditions: mice, 50 mg/kg oral thirty minutes before acetic acid; reduction in stretching movements in next thirty minutes
Experimental: The intraperitoneal injection of a dilute solution of acetic acid causes, in mice, repeated characteristic stretching movements under the effect of the pain. The oral administration of a dosage of 50 mg/kg of the test derivative, thirty minutes before the injection of acetic acid, reduces the number of movements in the next thirty minutes. In this way, the average number of stretching movements and the percentage analgesia obtained, corresponding to the percentage reduction in the number of stretching movements, compared with the controls, are determined.

[3] = tested on: cholesterol level in the plasma; test: Hypocholesterolaemic activity: test using propyl thiouracil; type: in vivo; conditions: rats, 10 mg/kg orally, 11th day
Source text: (a) Test using propyl thiouracil ([…] and Coll., J. Pharmacol. Exper. Therap., 1963, 142, 132-136). […] On the 11th day of the experiment, blood samples are taken and the free cholesterol and total cholesterol are estimated.

[4] = tested on: carrageenin-induced oedema; test: Anti-inflammatory activity: localised carrageenin-induced oedema; type: in vivo; conditions: rat, 10 mg/kg oral (four administrations)
Experimental: A 1% carrageenin solution (0.1 ml) is injected into the metatarsal flexors of the right hind paw of the rat at time 0. The animals in the treated batch are also given by oral route, 10 mg/kg of the test derivative, one hour before, then at the same time as the injection of the phlogogenic agent, then one hour and 21/2 hours afterwards, respectively. The measurements taken with a Roch micrometer at time 0, then 1 hour, 2 hours, 3 hours and 5 hours after administration of the carrageenin make it possible to determine, as a function of time, the percentage anti-inflammatory activity compared with the control batch.

ovalbumin oedema = test: Anti-inflammatory activity: generalised ovalbumin oedema; type: in vivo; conditions: rat, 50 mg oral one hour before and at injection of ovalbumin
Experimental: The rat is given a simultaneous intraperitoneal injection of 1 ml of ovalbumin and 0.5 ml of a 1% aqueous solution of Evans blue. Moreover, 50 mg of the test derivative are administered orally to the animals of the test batches one hour before and at the same time as the injection of ovalbumin. The intensity of the phenomenon thus induced is given a mark from 1 to 5, depending on the progression of the inflammatory syndrome. Thus, the average oedematous intensity and the percentage reduction in the oedematous reaction, compared with the control, are determined.

Cc1ccc(N2CCN(CCCNC3CCCCC3)CC2)cc1 [Derivative no. 1, 1-(3-cyclohexylamino-propyl)-4-p-tolyl-piperazine]
LD50 at 24 h [1]: 25 mg/kg | Burstein test with dextrane (B) (dyslipaemia; 1st Day): 11.1 | Kunkel phenol test (K1) (dyslipaemia; 1st Day): 8.2 | Kunkel phenol test (K2) (dyslipaemia; 1st Day): 13.7 | esterification ratio (E/T) (dyslipaemia; 1st Day): 0.50 | esterified cholesterol (E) (dyslipaemia; 1st Day): 0.28 | free cholesterol (L) (dyslipaemia; 1st Day): 0.27 | serum lipids (LS) (dyslipaemia; 1st Day): 1.95 | total cholesterol (T) (dyslipaemia; 1st Day): 0.55 | Burstein test with dextrane (B) (dyslipaemia; 30th Day): 21.2 | Kunkel phenol test (K1) (dyslipaemia; 30th Day): 18.6 | Kunkel phenol test (K2) (dyslipaemia; 30th Day): 25.4 | esterification ratio (E/T) (dyslipaemia; 30th Day): 0.62 | esterified cholesterol (E) (dyslipaemia; 30th Day): 0.92 | free cholesterol (L) (dyslipaemia; 30th Day): 0.55 | serum lipids (LS) (dyslipaemia; 30th Day): 2.91 | total cholesterol (T) (dyslipaemia; 30th Day): 1.47 | Burstein test with dextrane (B) (dyslipaemia; 75th Day): 35.8 | Kunkel phenol test (K1) (dyslipaemia; 75th Day): 33.1 | Kunkel phenol test (K2) (dyslipaemia; 75th Day): 41.9 | esterification ratio (E/T) (dyslipaemia; 75th Day): 0.66 | esterified cholesterol (E) (dyslipaemia; 75th Day): 1.80 | free cholesterol (L) (dyslipaemia; 75th Day): 1.12 | serum lipids (LS) (dyslipaemia; 75th Day): 4.03 | total cholesterol (T) (dyslipaemia; 75th Day): 2.92 | aortic atheromatous lesions (livers and aortas): 1.4 | fatty infiltrations of the liver (livers and aortas): 0.9 | average percentage of analgesia [2]: 65%

Clc1ccc(N2CCN(CCCN3CCCCC3)CC2)cc1 [Derivative no. 2, 4-p-chlorophenyl-1-(3-piperidinopropyl)-piperazine]
LD50 at 24 h [1]: 53 mg/kg | Free cholesterol [3]: 0.13 g/L | Total cholesterol [3]: 0.62 g/L | average percentage of analgesia [2]: 72%

CCCNCCCN1CCN(c2ccc(F)cc2)CC1 [Derivative no. 3, 1-(p-fluorophenyl)-4-(3-N-propylamino)propyl piperazine trihydrochloride]
LD50 at 24 h [1]: 89 mg/kg | Percentage anti-inflammatory activity ([4]; after 1 hr): 31% | Percentage anti-inflammatory activity ([4]; after 2 hrs): 44% | Percentage anti-inflammatory activity ([4]; after 3 hrs): 47% | Percentage anti-inflammatory activity ([4]; after 5 hrs): 49% | Percentage reduction in oedematous reaction (ovalbumin oedema; 2nd hour): 51% | Percentage reduction in oedematous reaction (ovalbumin oedema; 3rd hour): 62%

CCCNCCCN1CCN(c2cccc(C(F)(F)F)c2)CC1 [Derivative no. 4, 1-(3-n-propylaminopropyl)-4-(m-trifluoro-methylphenyl)-piperazine dihydrochloride]
LD50 at 24 h [1]: 57 mg/kg | Percentage anti-inflammatory activity ([4]; after 1 hr): 39% | Percentage anti-inflammatory activity ([4]; after 2 hrs): 51% | Percentage anti-inflammatory activity ([4]; after 3 hrs): 53% | Percentage anti-inflammatory activity ([4]; after 5 hrs): 58% | Percentage reduction in oedematous reaction (ovalbumin oedema; 2nd hour): 49% | Percentage reduction in oedematous reaction (ovalbumin oedema; 3rd hour): 61%

Cl.Cl.Cl.Clc1ccc(N2CCN(CCCNC3CCCCC3)CC2)cc1 [Derivative no. 5, 1-(3-cyclohexylamino-propyl)-4-(p-chlorophenyl)-piperazine trihydrochloride]
LD50 at 24 h [1]: 41 mg/kg | Free cholesterol [3]: 0.16 g/L | Total cholesterol [3]: 0.55 g/L | Burstein test with dextrane (B) (dyslipaemia; 1st Day): 10.9 | Kunkel phenol test (K1) (dyslipaemia; 1st Day): 8.1 | Kunkel phenol test (K2) (dyslipaemia; 1st Day): 12.6 | esterification ratio (E/T) (dyslipaemia; 1st Day): 0.49 | esterified cholesterol (E) (dyslipaemia; 1st Day): 0.28 | free cholesterol (L) (dyslipaemia; 1st Day): 0.29 | serum lipids (LS) (dyslipaemia; 1st Day): 2.1 | total cholesterol (T) (dyslipaemia; 1st Day): 0.57 | Burstein test with dextrane (B) (dyslipaemia; 30th Day): 21.1 | Kunkel phenol test (K1) (dyslipaemia; 30th Day): 18.8 | Kunkel phenol test (K2) (dyslipaemia; 30th Day): 25.0 | esterification ratio (E/T) (dyslipaemia; 30th Day): 0.62 | esterified cholesterol (E) (dyslipaemia; 30th Day): 0.91 | free cholesterol (L) (dyslipaemia; 30th Day): 0.54 | serum lipids (LS) (dyslipaemia; 30th Day): 2.85 | total cholesterol (T) (dyslipaemia; 30th Day): 1.45 | Burstein test with dextrane (B) (dyslipaemia; 75th Day): 35.9 | Kunkel phenol test (K1) (dyslipaemia; 75th Day): 32.8 | Kunkel phenol test (K2) (dyslipaemia; 75th Day): 41.8 | esterification ratio (E/T) (dyslipaemia; 75th Day): 0.60 | esterified cholesterol (E) (dyslipaemia; 75th Day): 1.78 | free cholesterol (L) (dyslipaemia; 75th Day): 1.14 | serum lipids (LS) (dyslipaemia; 75th Day): 4.1 | total cholesterol (T) (dyslipaemia; 75th Day): 2.92 | aortic atheromatous lesions (livers and aortas): 1.2 | fatty infiltrations of the liver (livers and aortas): 1.0

Clc1ccccc1N1CCN(CCCNC2CCCCC2)CC1 [Derivative no. 6, 4-(o-chlorophenyl)-1-(3-cyclohexylamino)-propylpiperazine trihydrochloride]
LD50 at 24 h [1]: 62 mg/kg | Free cholesterol [3]: 0.15 g/L | Total cholesterol [3]: 0.53 g/L | average percentage of analgesia [2]: 61%

Cl.Cl.Clc1ccc(N2CCN(CCCN3CCCC3)CC2)cc1 [Derivative no. 7, 1-(p-chlorophenyl)-4-(3-pyrrolidino-propyl)-piperazine dihydrochloride]
LD50 at 24 h [1]: 66 mg/kg | Free cholesterol [3]: 0.12 g/L | Total cholesterol [3]: 0.50 g/L | Burstein test with dextrane (B) (dyslipaemia; 1st Day): 10.6 | Kunkel phenol test (K1) (dyslipaemia; 1st Day): 8.1 | Kunkel phenol test (K2) (dyslipaemia; 1st Day): 13.2 | esterification ratio (E/T) (dyslipaemia; 1st Day): 0.51 | esterified cholesterol (E) (dyslipaemia; 1st Day): 0.27 | free cholesterol (L) (dyslipaemia; 1st Day): 0.25 | serum lipids (LS) (dyslipaemia; 1st Day): 1.98 | total cholesterol (T) (dyslipaemia; 1st Day): 0.52 | Burstein test with dextrane (B) (dyslipaemia; 30th Day): 21.2 | Kunkel phenol test (K1) (dyslipaemia; 30th Day): 18.5 | Kunkel phenol test (K2) (dyslipaemia; 30th Day): 25.2 | esterification ratio (E/T) (dyslipaemia; 30th Day): 0.63 | esterified cholesterol (E) (dyslipaemia; 30th Day): 0.96 | free cholesterol (L) (dyslipaemia; 30th Day): 0.55 | serum lipids (LS) (dyslipaemia; 30th Day): 2.88 | total cholesterol (T) (dyslipaemia; 30th Day): 1.51 | Burstein test with dextrane (B) (dyslipaemia; 75th Day): 35.6 | Kunkel phenol test (K1) (dyslipaemia; 75th Day): 32.9 | Kunkel phenol test (K2) (dyslipaemia; 75th Day): 50.0 | esterification ratio (E/T) (dyslipaemia; 75th Day): 0.62 | esterified cholesterol (E) (dyslipaemia; 75th Day): 1.83 | free cholesterol (L) (dyslipaemia; 75th Day): 1.12 | serum lipids (LS) (dyslipaemia; 75th Day): 3.97 | total cholesterol (T) (dyslipaemia; 75th Day): 2.95 | aortic atheromatous lesions (livers and aortas): 1.4 | fatty infiltrations of the liver (livers and aortas): 1.2 | average percentage of analgesia [2]: 69%

COc1ccc(N2CCN(CCCN3CCCC3)CC2)cc1.Cl.Cl.Cl [Derivative no. 8, 1-(p-methoxyphenyl)-4-(3-pyrrolidino-propyl)-piperazine trihydrochloride]
LD50 at 24 h [1]: 74 mg/kg | Percentage anti-inflammatory activity ([4]; after 1 hr): 37% | Percentage anti-inflammatory activity ([4]; after 2 hrs): 48% | Percentage anti-inflammatory activity ([4]; after 3 hrs): 50% | Percentage anti-inflammatory activity ([4]; after 5 hrs): 54% | Percentage reduction in oedematous reaction (ovalbumin oedema; 2nd hour): 55% | Percentage reduction in oedematous reaction (ovalbumin oedema; 3rd hour): 68%

Clc1ccc(N2CCN(CCCN3CCOCC3)CC2)cc1 [Derivative no. 9, dimaleate]
LD50 at 24 h [1]: 100 mg/kg | Free cholesterol [3]: 0.13 g/L | Total cholesterol [3]: 0.57 g/L

From US4119719A, “Piperazine compounds” (Parcor, priority 1975, dated 1978)
